Legend:
Type in all cases: in vivo
[1] = tested on: Setaria faberi (giant foxtail); test: Greenhouse postemergence herbicidal effect, giant foxtail (SETFA); conditions: 20-22 d
Description: (§1) Greenhouse Trial Methodology—Evaluation of Postemergence Herbicidal Effect
(§2) Seeds of the desired test plant species were planted in a 90:10% v/v (volume/volume) mixture of PRO-MIX® BX (Premier Tech Horticulture, Quakertown, Pa., USA) and PROFILE® GREENS GRADE™ (Profile Products LLC, Buffalo Grove, Ill., USA) planting mixture, which typically has a pH of 5.2 to 6.2 and an organic matter content of at least 50 percent, in plastic pots with a surface area of 103.2 square centimeters (cm^2). In some aspects, to ensure good germination and healthy plants, a fungicide treatment and/or other chemical or physical treatment was applied. The plants were grown for 7-36 days (d) in a greenhouse with an approximate 14-hour (h) photo-period which was maintained at about 23° C. during the day and 22° C. during the night. Nutrients and water were added on a regular basis and supplemental lighting was provided with overhead metal halide 1000-Watt lamps as necessary. The plants were employed for testing when they reached the second or third true leaf stage.
(§3) Emulsifiable concentrates of each of each pyridine carboxylate herbicide (Compound A or Compound B) were prepared at 100 grams acid equivalent per liter (g ae/L). The emulsifiable concentrates also included a safener, cloquintocet-mexyl, at 120 grams active ingredient per liter (g ai/L). An aliquot of each emulsifiable concentrate was placed in a 25 mL glass vial and diluted with an aqueous mixture of 1.25% (v/v) ACTIROB® B esterified rapeseed oil (Bayer Crop Science, Research Triangle Park, N.C., USA) or MSO® Concentrate with LECI-TECH® methylated soybean oil (Loveland Products, Loveland, Colo., USA) to obtain concentrated stock solutions at the highest application rate for each herbicide, based upon a 12 milliliter (mL) application volume at a rate of 187 liters per hectare (L/ha). The concentrated stock solutions were further diluted with an aqueous mixture of 1.25% v/v ACTIROB® B or MSO® Concentrate with LECI-TECH® to obtain stock solutions at reduced application rates for each herbicide. Spray solutions of the herbicide combinations (Compound A or Compound B plus glyphosate or glufosinate) were prepared by adding weighed amounts or aliquots of the glyphosate or glufosinate to the stock solutions of Compound A or Compound B to form 12-mL spray solutions in two-way combinations.
(§4) The spray solutions were applied to the plant material with an overhead Mandel track sprayer equipped with 8002E nozzles calibrated to deliver 187 L/ha over an application area of 0.503 square meters (m^2) at a spray height of 18 inches (43 centimeters (cm)) above the average plant canopy. Control plants were sprayed in the same manner with the solvent blank. All pyridine carboxylate herbicide (component a) application rates are given as “g ae/ha” and all glyphosate or glufosinate (component b) application rates are given as “g ai/ha.”
(§5) The treated plants and control plants were placed in a greenhouse as described above and watered by sub-irrigation to prevent wash-off of the test compounds. After 20-22 d, the condition of the test plants as compared with that of the control plants was determined visually and scored on a scale of 0 to 100 percent where 0 corresponds to no injury and 100 corresponds to complete kill.

[2] = tested on: Abutilon theophrasti (velvetleaf); test: Greenhouse postemergence herbicidal effect, velvetleaf (ABUTH); conditions: Example 4, 20-22 d
Description: as §1, §2
Emulsifiable concentrates of each of each pyridine carboxylate herbicide (Compound A or Compound B) were prepared at 100 grams acid equivalent per liter (g ae/L). The emulsifiable concentrates also included a safener, cloquintocet-mexyl, at 120 grams active ingredient per liter (g ai/L). […]
as §5

Kochia scoparia (kochia) = test: Greenhouse postemergence herbicidal effect, kochia (KCHSC); conditions: 20-22 d
Description: as §1, §2, §3, §4, §5

[3] = tested on: Viola tricolor (wild pansy); test: Greenhouse postemergence herbicidal effect, wild pansy (VIOTR); conditions: Example 4, 20-22 d
Description: as §1, §2, §3, §4, §5

[4] = tested on: Cirsium arvense (Canadian thistle); test: Greenhouse postemergence herbicidal effect, Canadian thistle (CIRAR); conditions: 20-22 d
Description: as §1, §2, §3, §4, §5

[5] = tested on: Polygonum convolvulus (wild buckwheat); test: Greenhouse postemergence herbicidal effect, wild buckwheat (POLCO); conditions: 20-22 d
Description: as §1, §2, §3, §4, §5

[6] = tested on: Brassica napus (spring rape); test: Greenhouse postemergence herbicidal effect, spring rape (BRSNN); conditions: 20-22 d
Description: as §1, §2, §3, §4, §5

[7] = tested on: Chenopodium album L. (common lambsquarters); test: Greenhouse postemergence herbicidal effect, common lambsquarters (CHEAL); conditions: 20-22 d
Description: as §1, §2, §3, §4, §5

[8] = tested on: Sinapis arvensis (wild mustard); test: Greenhouse postemergence herbicidal effect, wild mustard (SINAR); conditions: 20-22 d
Description: as §1, §2, §3, §4, §5

[9] = tested on: Brassica napus (winter rape); test: Greenhouse postemergence herbicidal effect, winter rape (BRSNW); conditions: 20-22 d
Description: as §1, §2, §3, §4, §5

[10] = tested on: Hordeum vulgare (spring barley); test: Greenhouse postemergence phytotoxicity on crop, spring barley (HORVS); conditions: 20-22 d
Description: as §1, §2, §3, §4, §5

[11] = tested on: Matricaria chamomilla (wild chamomile); test: Greenhouse postemergence herbicidal effect, wild chamomile (MATCH); conditions: 20-22 d
Description: as §1, §2, §3, §4, §5

[12] = tested on: Amaranthus retroflexus (pigweed); test: Greenhouse postemergence herbicidal effect, pigweed (AMARE); conditions: 20-22 d
Description: as §1, §2, §3, §4, §5

[13] = tested on: Salsola kali (Russian thistle); test: Greenhouse postemergence herbicidal effect, Russian thistle (SASKR); conditions: 20-22 d
Description: as §1, §2, §3, §4, §5

[14] = tested on: Triticum aestivum (spring wheat); test: Greenhouse postemergence phytotoxicity on crop, spring wheat (TRZAS); conditions: 20-22 d
Description: as §1, §2, §3, §4, §5

[15] = Example 3, Compound B 7.5 g ae/ha alone
[16] = Example 3, Compound B 10 g ae/ha alone
[17] = Example 4, Compound B 7.5 g ae/ha alone
[18] = Example 4, Compound B 10 g ae/ha alone
[19] = Example 3, Glyphosate 210 g ai/ha alone
[20] = Example 1, Glyphosate 210 g ai/ha alone
[21] = Example 2, Glyphosate 420 g ai/ha alone

C#CCOC(=O)c1nc(-c2ccc3cc[nH]c3c2F)c(F)c(N)c1Cl [Compound B, propargyl 4-amino-3-chloro-5-fluoro-6-(7-fluoro-1H-indol-6-yl)pyridine-2-carboxylate] was tested, and the “% visual injury, Obs” value [1, 15] was 70%, the “% visual injury, Obs” value [1, 16] was 55% and the “% visual injury, Obs” value [1, 17] was 70%. For the same molecule, the “% visual injury, Obs” value [1, 18] was 55%, the “% visual injury, Obs” value ([2]; Compound B 7.5 g ae/ha alone) was 68% and the “% visual injury, Obs” value ([2]; Compound B 10 g ae/ha alone) was 68%. For the same molecule, the “% visual injury, Obs” value (Kochia scoparia (kochia); [15]) was 68%, the “% visual injury, Obs” value (Kochia scoparia (kochia); [16]) was 80% and the “% visual injury, Obs” value (Kochia scoparia (kochia); [17]) was 68%. For the same molecule, the “% visual injury, Obs” value (Kochia scoparia (kochia); [18]) was 80%, the “% visual injury, Obs” value ([3]; Compound B 7.5 g ae/ha alone) was 10% and the “% visual injury, Obs” value ([3]; Compound B 10 g ae/ha alone) was 40%. For the same molecule, the “% visual injury, Obs” value [4, 15] was 45%, the “% visual injury, Obs” value [4, 16] was 45% and the “% visual injury, Obs” value [4, 17] was 45%. For the same molecule, the “% visual injury, Obs” value [4, 18] was 45%, the “% visual injury, Obs” value [5, 15] was 73% and the “% visual injury, Obs” value [5, 16] was 80%. The “% visual injury, Obs” value [5, 17] was 73%, the “% visual injury, Obs” value [5, 18] was 80% and the “% visual injury, Obs” value [6, 15] was 68%. For the same molecule, the “% visual injury, Obs” value [6, 16] was 85%, the “% visual injury, Obs” value [6, 17] was 68% and the “% visual injury, Obs” value [6, 18] was 85%. The “% visual injury, Obs” value [7, 15] was 85%, the “% visual injury, Obs” value [7, 16] was 90% and the “% visual injury, Obs” value [7, 17] was 85%. The “% visual injury, Obs” value [7, 18] was 90%.
For O=C(O)CNCP(=O)(O)O [Glyphosate, N-(phosphonomethyl)glycine], the “% visual injury, Obs” value [1, 19] was 30%, the “% visual injury” value [8, 20] was 50% and the “% visual injury, Obs” value [8, 21] was 30%. The “% visual injury” value (Kochia scoparia (kochia); [20]) was 0%, the “% visual injury, Obs” value (Kochia scoparia (kochia); [21]) was 38% and the “% visual injury, Obs” value (Kochia scoparia (kochia); [19]) was 3%. The “% visual injury” value [9, 20] was 68%, the “% visual injury, Obs” value [9, 21] was 35% and the “% visual injury” value [10, 20] was 83%. The “% visual injury, Obs” value [10, 21] was 80%, the “% visual injury” value [11, 20] was 60% and the “% visual injury, Obs” value [11, 21] was 75%. For the same molecule, the “% visual injury” value [12, 20] was 100%, the “% visual injury, Obs” value [12, 21] was 100% and the “% visual injury” value [13, 20] was 10%. The “% visual injury, Obs” value [13, 21] was 53%, the “% visual injury” value [4, 20] was 38% and the “% visual injury, Obs” value [4, 21] was 83%. The “% visual injury, Obs” value [4, 19] was 40%, the “% visual injury” value [14, 20] was 90% and the “% visual injury, Obs” value [14, 21] was 90%. The “% visual injury” value [5, 20] was 65%, the “% visual injury, Obs” value [5, 21] was 38% and the “% visual injury, Obs” value [5, 19] was 20%. The “% visual injury, Obs” value [6, 19] was 0%, the “% visual injury” value [7, 20] was 53% and the “% visual injury, Obs” value [7, 21] was 75%. The “% visual injury, Obs” value [7, 19] was 8%.

— patent US20210400967A1, “COMPOSITIONS COMPRISING PYRIDINE CARBOXYLATE HERBICIDES WITH GLYPHOSATE OR GLUFOSINATE” (Corteva Agriscience LLC, priority 2018, published 2021)
